Experimental data as given in ChEMBL document CHEMBL1157081, “HPLC-based activity profiling for GABA(A) receptor modulators: a new dihydroisocoumarin from Haloxylon scoparium” (J Nat Prod, 2010).
The source made the active and inactive calls. The calls are words filed in the database; no cut-off is given here.

Columns and labels:
[1] = tested on: Oocyte; assay: Agonist activity at GABA A receptor alpha-1-beta-2-gamma-2S expressed in Xenopus oocytes assessed as enhancement of chloride current at 500 uM; format: functional, cell-based
[2] = tested on: Oocyte; assay: Allosteric modulation at GABA A receptor alpha-1-beta-2-gamma-2S expressed in Xenopus oocytes assessed as enhancement of GABA-induced chloride current at >=3 uM; format: cell-based
[3] = Allosteric modulation at GABA A receptor alpha-1-beta-2-gamma-2S expressed in Xenopus oocytes assessed as enhancement of GABA-induced chloride current; format: cell-based; conditions: Oocyte
[4] = tested on: Oocyte; assay: Allosteric modulation at GABA A receptor alpha-1-beta-2-gamma-2S expressed in Xenopus oocytes assessed as enhancement of GABA-induced chloride current at 500 uM; format: cell-based

| Activity [1] | Activity [2] | EC50 [3] [µM] | Activity [4] [%] | Compound |
| --- | --- | --- | --- | --- |
| inactive | Active | 140 | 145 | COc1c2c(cc3c1C(=O)O[C@H](c1ccccc1)C3)OCO2 |
|  |  | 237 |  | CC1(C)C2CCC1(C)C(O)C2 (racemic) [BORNEOL] |

| Compound | Activity [1] | Activity [2] | EC50 [3] [µM] | Activity [4] [%] |
| --- | --- | --- | --- | --- |
| CC(C)=CCC[C@](C)(O[C@@H]1O[C@H](CO[C@@H]2O[C@@H](CO)[C@H](O)[C@H]2O)[C@@H](O)[C@H](O)[C@H]1O)[C@H]1CC[C@]2(C)[C@@H]1[C@H](O)C[C@@H]1[C@@]3(C)CC[C@H](O[C@@H]4O[C@H](CO)[C@@H](O)[C@H](O)[C@H]4O[C@@H]4O[C@H](CO)[C@@H](O)[C@H](O)[C@H]4O)C(C)(C)[C@@H]3CC[C@]12C [GINSENOSIDE RC] |  |  | 53.2 |  |
